The text below walks through data of patent US6489307B1, “Antisense compositions targeted to β1-adrenoceptor-specific mRNA and methods of use” (University of Florida, priority 1998, dated 2002).

Data set [1] is described as follows: Immune response (gel immunodiffusion, C-reactive protein). As to conditions: after repeated administration. It is filed as in vivo, rat (SHR). From the text: (§1) Safety profiles including liver transaminases, hematology, immune response and tissue pathology were investigated during three repeated injections of β1-AS-ODNs for extended periods of time.
C-reactive protein (CRP), a clinical index for immune reaction, was found negative in all animals.

Data set [2] is described as follows: Tissue histology after repeated injections. The settings on record: three repeated injections, more than 2 months. The class given is in vivo, rat (SHR).
Source text: as §1
Heart, liver, spleen and kidney were subjected to pathological examination after three repeated injections of β1-AS-ODN for more than 2 months.

In data set [3] the test system is SHRs. The settings on record: Zhang et al., 1999; without causing bradycardia; cited from earlier work.
Another data set deals with plasma Ang II. As to the kind of experiment: Plasma Ang II radioimmunoassay. The class given is in vivo, rat (SHR).
Data set [4] has as its system SHRs. The class given is in vivo, rat (SHR). How it is done:
Each rat cage was placed on a receiver (RLA 1020, Data Sciences, St. Paul, Minn.) for measurement of cardiovascular parameters. Data were collected with a computer-based data acquisition program (Dataquest Lab-PRO3.0; Data Sciences). BP and HR were measured every 10 min. and averaged every 1 to 24 hrs. Before treatment, SHRs were monitored for a week to get a stable baseline.
Each rat cage was placed on a receiver (RLA1020, Data Sciences) for measurement of cardiovascular parameters. Data were collected with a computer-based data acquisition program (Dataquest LabPRO3.0; Data Sciences). BP and HR were measured every 10 min and averaged every 1 to 24 hr. Before treatment, SHR were monitored for a week to get a stable baseline.

The next data set relates to preprorenin mRNA. As to the kind of experiment: RT-PCR and Southern blotting, renal cortex. It is filed as in vivo, rat (SHR). How it is done:
(§2) At different time points after the single injection of β1-AS-ODN or inverted ODN, rats were euthanized, and the renal cortex was dissected from the left kidneys, immediately dipped into RNA later tissue storage buffer (Ambion), and stored at −20° C. Total RNA was extracted with RNAwiz reagent (Ambion) and quantified by spectrophotometer. RNA samples from 4 to 5 rats from each time point were pooled. RNA (5 μg) was digested by DNase I and reverse-transcribed by Superscript reverse transcriptase (GIBCO BRL) at 42° C. for 50 min. and 1/20 of the reverse transcription (RT) product was used to run a polymerase chain reaction (PCR) for 20 cycles. PCR primers for β1-AR were 5′-[…]-3′ (SEQ ID NO:199) (forward) and 5′-[…]-3′ (SEQ ID NO:200) (reverse) and yielded products of 432 bp, which spanned the AUG start codon. Primers for preprorenin were 5′-[…]-3′ (SEQ ID NO:201) (forward) and 5′-[…]-3′ (SEQ ID NO:202) (reverse) and yielded products of 362 bp.
(§3) Primers for GAPDH were 5′-[…]-3′ (SEQ ID NO:203) (forward) and 5′-[…]-3′ (SEQ ID NO:204) (reverse) and yielded products of 505 bp (Jo et al., 1996). RT-PCR products were subjected to Southern blotting, hybridized with psoralen-biotin-labeled cDNA probes, and detected with nonisotopic kits (Ambion). After the membranes had been exposed to x-ray films, the intensity of β1-AR and preprorenin mRNAs was quantified by densitometry and normalized with GAPDH mRNA levels. The studies were repeated at least twice.

For another data set, the system named is β1-AR mRNA. As to the kind of experiment: RT-PCR and Southern blotting, renal cortex. It is filed as in vivo, rat (SHR). As to conditions: 0.5 mg/kg i.v., semiquantitative RT-PCR. How it is done:
as §2, §3

The test system of another data set is β2-AR. The experiment in a line: β-adrenergic receptor binding assay on renal cortex membranes. As to conditions: 0.5 mg/kg i.v. It is filed as in vivo, rat (SHR). The procedure:
Four days after intravenous injection of saline (n=6) or 0.5 mg/kg inverted ODN (n=6) or 4, 10, 18 and 40 days after injection of 0.5 mg/kg β1-AS-ODN (n=24), animals were euthanized, and membranes were prepared from the renal cortex of the left kidneys as previously described (Baker and Pitha, 1982). For saturation studies, 100 μg membrane protein was incubated in triplicate with 6 concentrations of [^125](−)iodocyanopindolol (ICYP, NEN Life Science, 6.25 to 100 pmol/L) in a total volume of 250 μL containing 50 mmol/L Tris-HCl (pH 7.4) and 5 mmol/L MgCl2 at 36° C. for 60 min. The nonspecific and β2-adrenergic receptor binding levels were determined in the presence of 1 μmol/L (±)-alprenolol and […] CGP20712A (RBI), respectively. Then the reaction mixture was passed through a Whatman GF/B glass fiber filter with a Brandel harvester, and the bound radioactivity was counted for 1 min.

Description for plasma Ang II: Plasma Ang II levels were measured by radioimmunoassay as previously described (Phillips and Kimura, 1988).

For the substance “5′-CCGCGCCCATGCCGA-3′ (phosphorothioate backbone, further chemistry not given here) [β1-AS-ODN, 15-mer antisense ODN targeted to the AUG start codon of rat β1-AR mRNA]”, the “C-Reactive Protein” value in data set [1] is on record as “negative”. For the same substance, the “Antibody to ODN” value in data set [1] (gel immunodiffusion) was “no detectable antibody”. Besides, the “pathological examination of heart, liver, spleen and kidney” value in data set [2] is listed as “No immunopathology or organ damage”. Also, the “maximum drop in blood pressure” value in the data set with SHRs [3] is recorded as 38 mmHg. Moreover, the “plasma Ang II levels” value with plasma Ang II (day 4) is reported as “not on day 4”; in the data set on plasma Ang II (day 10 and day 18), “significantly decreased”. Besides, in the data set on SHRs [4] (1 mg/kg, liposomes 1:0.5), the “duration of antihypertensive effect” value was found to be 8 days. Besides, the “maximum drop in mean BP” value in the data set with SHRs [4] (1 mg/kg, liposomes 1:0.5) was 15 mm Hg. For the same substance, in the data set on SHRs [4] (rat, in vivo), the reflex tachycardia result is reported as “no reflex tachycardia”. In the data set with preprorenin mRNA (4 days after injection), the “preprorenin mRNA level in renal cortex” value is listed as 62 % of control. Moreover, the “preprorenin mRNA decrease” value in the data set with preprorenin mRNA (by day 18) was “completely reversed”. Further, the results for the “level of steady-state β1-AR mRNA in renal cortex” value in the data set with β1-AR mRNA and with β1-AR mRNA (listed as AS-ODN) were “did not reduce” and “no reduction”, respectively. The “β2-AR level in renal cortex” value in the data set on β2-AR is “not affected”.
